For 5 compounds, IC50 and EC50 results are on record in publication PMC5349910, “Discovery of BPR1K871, a quinazoline based, multi-kinase inhibitor for the treatment of AML and solid tumors: Rational design, synthesis, in vitro and in vivo evaluation” (Oncotarget, 2016).

Read-outs that look alike come from different tables or passages of the source.

One test addresses T1, FLT3 (Homo sapiens, UniProt P36888).
T1 construct: FLT3 kinase catalytic domain (residues Tyr567-Ser993); made in house; host or cells: Sf9 insect cells (baculovirus, pBac-PAK8-GST-FLT3-KD)
T1 sequence (P36888 567-993): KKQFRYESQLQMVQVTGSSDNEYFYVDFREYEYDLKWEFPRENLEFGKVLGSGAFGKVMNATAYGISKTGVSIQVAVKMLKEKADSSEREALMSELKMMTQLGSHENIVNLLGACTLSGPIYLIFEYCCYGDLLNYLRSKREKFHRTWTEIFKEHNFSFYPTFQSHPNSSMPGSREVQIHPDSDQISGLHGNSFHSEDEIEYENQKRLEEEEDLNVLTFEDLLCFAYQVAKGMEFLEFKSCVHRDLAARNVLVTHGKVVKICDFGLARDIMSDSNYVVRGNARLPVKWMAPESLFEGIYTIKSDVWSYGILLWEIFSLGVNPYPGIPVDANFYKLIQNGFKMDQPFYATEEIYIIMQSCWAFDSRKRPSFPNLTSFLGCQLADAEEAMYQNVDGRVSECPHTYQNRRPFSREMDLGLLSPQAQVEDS
More on the design: method as in PMID 20550212, PMID 23172777, PMID 24665000. As to conditions: previously reported leads 1, 2, 3; cited from earlier work.

Another test addresses T2, AURKA (Homo sapiens, UniProt O14965).
T2 construct: recombinant GST-AURKA (residues Ser123-Ser401) containing the kinase domain; GST (N); made in house; host or cells: Sf9 insect cells
T2 sequence (O14965 123-401): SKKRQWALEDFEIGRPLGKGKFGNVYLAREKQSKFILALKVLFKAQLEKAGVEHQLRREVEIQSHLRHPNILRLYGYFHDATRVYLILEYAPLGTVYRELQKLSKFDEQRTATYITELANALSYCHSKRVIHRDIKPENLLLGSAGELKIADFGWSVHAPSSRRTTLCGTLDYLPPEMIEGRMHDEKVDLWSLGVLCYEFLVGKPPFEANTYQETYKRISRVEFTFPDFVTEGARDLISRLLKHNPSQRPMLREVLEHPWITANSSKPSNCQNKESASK
More on the design: method as in PMID 20550212, PMID 23172777, PMID 24665000. As to conditions: previously reported leads 1, 2, 3; cited from earlier work.

The test system of a further test is H1975 cells. As to the kind of experiment: Anti-proliferative activity, H1975. It counts as cell-based. Conditions: Homo sapiens.
Another test deals with HCC827 cells. As to the kind of experiment: Anti-proliferative activity, HCC827. It counts as cell-based. Conditions: Homo sapiens.
For a further test, the system named is H2228 cells. As to the kind of experiment: Anti-proliferative activity, H2228. It counts as cell-based. As to conditions: Homo sapiens.
For another test, the system named is CL-97 cells. As to the kind of experiment: Anti-proliferative activity, CL-97. It counts as cell-based, human.
Another test relates to MOLM-13 cells. Put plainly: MTS cell viability assay, MOLM-13. The class given is cell-based, human. As to conditions: Homo sapiens, MOLM-13, 72 h, read-out: MOLM-13 EC50. The protocol:
(§1) The MTS cell viability assay was conducted as previously described. The MOLM-13 human leukemia cell line was obtained from the German Resource Centre for Biological Material (DSMZ, Braunschweig, Germany); the MV4-11 cell line was purchased from the American Type Culture Collection (ATCC, Manassas, VA, USA). […] To determine cell viability after drug treatment, assay for MOLM-13 and MV4-11 was performed by seeding 10000 cells per well in a 96-well culture plate. […] After 16 h, cells were then treated with vehicle or various concentrations of compound in medium for 72 h. Viable cells were quantified using the MTS method (Promega, Madison, WI, USA) according to the manufacturer's recommended protocol. Results were determined by measuring the absorbance at 490 nm using a plate reader (Victor2; PerkinElmer, Shelton, CT, USA).
Background: Formazan colour is commonly taken as a measure of viable cells.

Another test has as its system RS4-11 cells. As to the kind of experiment: Anti-proliferative activity, RS4-11. Conditions: Homo sapiens. It counts as cell-based.
The test system of another test is MV4-11 cells. Put plainly: MTS cell viability assay, MV4-11. It counts as cell-based, human. Conditions: Homo sapiens, MV4-11, 72 h, read-out: MV4-11 EC50. On the procedure:
as §1

For the next test, the system named is U937 cells. Put plainly: Anti-proliferative activity, U937. The class given is cell-based. Conditions: Homo sapiens.
The subject of the next test is K562 cells. Put plainly: Anti-proliferative activity, K562. The class given is cell-based. Conditions: Homo sapiens.
A further test deals with HCT-116 cells. As to the kind of experiment: Anti-proliferative activity, HCT-116. It counts as cell-based, human.
The next test relates to Mia-PaCa2 cells. As to the kind of experiment: Anti-proliferative activity, Mia-PaCa2. Conditions: Homo sapiens, MIA PaCa-2, Human Pancreatic Cancer; supplement values ± SEM. The class given is cell-based, human.
In another test the test system is Colo 205 cells. As to the kind of experiment: Anti-proliferative activity, Colo 205. The class given is cell-based. As to conditions: Homo sapiens, COLO 205, Human Colon Cancer.
The mark [1] stands for this setting: MTS, 72 h, AML-FLT3-ITD (heterozygous), supplement values ± SEM.
Setting [2] is: MTS, 72 h, AML-FLT3-ITD (homozygous), supplement values ± SEM.
The mark [3] stands for this setting: HCT-116, Human Colon Cancer, supplement values ± SEM, read-out: HCT-116 EC50.

In the case of `O=C(Nc1cccc(Cl)c1)Nc1ncc(CCNc2ncnc3oc(-c4ccccc4)c(-c4ccccc4)c23)s1` [Compound 3], the IC50 at FLT3 was 322 nM; at AURKA, 43 nM.

With `CCN(CCCOc1ccc2c(Nc3cc(CC(=O)Nc4cccc(F)c4)n[nH]3)ncnc2c1)CCOP(=O)(O)O` [Barasertib], the EC50 in the test on H1975 cells (NCI-H1975, read-out: H1975 EC50) was 390 nM; in the test on HCC827 cells (HCC827, read-out: HCC827 EC50) it was 127 nM; in the test with H2228 cells (NCI-H2228, read-out: H2228 EC50), 340 nM; in the test with CL-97 cells (Homo sapiens, CL97, read-out: CL-97 EC50), 454 nM; in the test with MOLM-13 cells it was 42 nM; in the test with RS4-11 cells (RS4-11, read-out: RS4-11 EC50), 11 nM. Moreover, the EC50 was 17 nM with MV4-11 cells; greater than 10000 nM with U937 cells (U-937, read-out: U937 EC50); greater than 10000 nM with K562 cells (K562, read-out: K562 EC50); 67 nM in the test with HCT-116 cells (Homo sapiens, HCT-116, read-out: HCT-116 EC50).

Turning to `COc1cc2ncnc(NCCc3ccc(NC(=O)Nc4ccccc4)cc3)c2cc1OC` [Compound 2], on FLT3, the concentration for half-maximal inhibition (IC50) is greater than 10000 nM.

Regarding `Cc1ccc(F)c(NC(=O)Nc2ccc(-c3cccc4[nH]nc(N)c34)cc2)c1` [Linifanib], the EC50 with H1975 cells (NCI-H1975, NSCLC-EGFR LR/TM, supplement values ± SEM, read-out: H1975 EC50) was 8850 nM; in the test with HCC827 cells (HCC827, NSCLC-EGFR L858R, supplement values ± SEM, read-out: HCC827 EC50), 6180 nM; in the test with H2228 cells (NCI-H2228, NSCLC-ALK, supplement values ± SEM, read-out: H2228 EC50), 8780 nM; in the test on CL-97 cells (CL97, Human Lung Cancer, supplement values ± SEM, read-out: CL-97 EC50), greater than 20000 nM; in the test with MOLM-13 cells (setting [1]), 38 nM; in the test with RS4-11 cells (RS4-11, ALL-wt-FLT3 (homozygous), supplement values ± SEM, read-out: RS4-11 EC50), 9200 nM. Further, the EC50 was 82 nM in the test with MV4-11 cells (setting [2]); greater than 18000 nM with U937 cells (U-937, AML-FLT3-negative, supplement values ± SEM, read-out: U937 EC50); greater than 20000 nM in the test with K562 cells (K562, CML-Bcr-Abl FLT3-negative, supplement values ± SEM, read-out: K562 EC50); 16400 nM in the test with Mia-PaCa2 cells; 8070 nM with HCT-116 cells (setting [3]).

For `Cc1cc(Nc2cc(N3CCN(C)CC3)nc(Sc3ccc(NC(=O)C4CC4)cc3)n2)[nH]n1` [VX-680, reference compound], the EC50 came out at 69 nM with MOLM-13 cells (setting [1]), 71 nM in the test with MV4-11 cells (setting [2]), 86 nM with Colo 205 cells and 97 nM in the test with HCT-116 cells (setting [3]).

Usually IC50 stands for the concentration at which inhibition is half-maximal. Broadly, the EC50 is the concentration at which the effect is half-maximal.
